Data on 9 compounds can be found in US20260217767A1, “NOVEL A4B7 THIOETHER PEPTIDE DIMER ANTAGONISTS” (Protagonist Therapeutics, Inc., priority 2014, published 2026).

One series has as its target T1, rh integrin α4β7 (Homo sapiens, UniProt P13612+P26010).
T1 construct: purchased R&D Systems 5397-A30
T1 sequence (P13612 34-977 limits assumed): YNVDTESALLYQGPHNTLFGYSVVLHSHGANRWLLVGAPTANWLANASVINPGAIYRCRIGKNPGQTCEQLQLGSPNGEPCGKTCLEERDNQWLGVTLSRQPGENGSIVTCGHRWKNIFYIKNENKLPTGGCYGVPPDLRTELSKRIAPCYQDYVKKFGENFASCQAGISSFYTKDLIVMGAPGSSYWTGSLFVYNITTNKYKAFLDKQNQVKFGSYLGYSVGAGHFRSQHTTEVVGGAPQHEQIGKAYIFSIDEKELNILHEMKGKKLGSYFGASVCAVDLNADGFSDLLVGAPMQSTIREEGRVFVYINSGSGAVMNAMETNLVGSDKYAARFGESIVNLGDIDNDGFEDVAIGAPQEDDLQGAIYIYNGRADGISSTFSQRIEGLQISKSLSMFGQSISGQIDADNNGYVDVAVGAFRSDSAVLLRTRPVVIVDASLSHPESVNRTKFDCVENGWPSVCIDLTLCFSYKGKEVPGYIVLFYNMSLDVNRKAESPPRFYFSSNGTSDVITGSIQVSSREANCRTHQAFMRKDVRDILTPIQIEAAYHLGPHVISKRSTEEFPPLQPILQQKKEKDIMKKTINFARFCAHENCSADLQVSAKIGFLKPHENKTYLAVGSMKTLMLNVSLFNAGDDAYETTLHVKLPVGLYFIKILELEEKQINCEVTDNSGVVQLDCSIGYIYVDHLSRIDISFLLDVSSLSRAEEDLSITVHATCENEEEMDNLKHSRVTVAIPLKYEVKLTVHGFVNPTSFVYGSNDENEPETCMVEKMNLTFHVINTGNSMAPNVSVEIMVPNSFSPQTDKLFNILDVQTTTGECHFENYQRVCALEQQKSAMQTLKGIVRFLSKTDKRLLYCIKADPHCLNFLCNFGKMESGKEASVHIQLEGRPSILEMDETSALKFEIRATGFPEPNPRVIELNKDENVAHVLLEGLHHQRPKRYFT
T1 sequence (P26010 20-723 limits assumed): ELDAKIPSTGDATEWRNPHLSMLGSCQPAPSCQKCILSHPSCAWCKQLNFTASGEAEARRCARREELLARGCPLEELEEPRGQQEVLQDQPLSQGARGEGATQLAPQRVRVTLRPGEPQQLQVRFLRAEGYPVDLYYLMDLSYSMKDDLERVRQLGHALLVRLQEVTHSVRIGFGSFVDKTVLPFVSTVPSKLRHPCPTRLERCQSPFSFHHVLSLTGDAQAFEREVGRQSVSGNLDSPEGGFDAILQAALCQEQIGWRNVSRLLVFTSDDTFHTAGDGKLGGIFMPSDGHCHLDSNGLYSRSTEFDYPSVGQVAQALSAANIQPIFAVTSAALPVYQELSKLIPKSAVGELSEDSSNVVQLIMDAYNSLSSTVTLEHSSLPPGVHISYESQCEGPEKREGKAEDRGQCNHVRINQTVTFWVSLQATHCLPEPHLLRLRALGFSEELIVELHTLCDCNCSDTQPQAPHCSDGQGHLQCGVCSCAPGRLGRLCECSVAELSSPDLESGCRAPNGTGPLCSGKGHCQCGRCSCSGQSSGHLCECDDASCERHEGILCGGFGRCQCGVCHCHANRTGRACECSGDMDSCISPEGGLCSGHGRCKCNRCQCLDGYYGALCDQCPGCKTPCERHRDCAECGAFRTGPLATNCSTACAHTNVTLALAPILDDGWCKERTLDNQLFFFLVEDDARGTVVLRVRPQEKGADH
The experiment in a line: α4β7-MAdCAM Competition ELISA. As to conditions: read-out: ELISA A4B7. It counts as binding. An outline of the steps: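 Recombinant human α4β7 captured on nickel-coated plates, then incubated 1 h at room temperature with serially diluted peptides (final top 10 μM) and 10 nM final MAdCAM-1 in Tris pH 7.6 buffer with 1 mM MnCl2 or MgCl2. Bound MAdCAM-1 detected with anti-human IgG1-HRP and TMB, absorbance at 450 nm.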

Series [1] is described as follows: Simulated Intestinal Fluid (SIF) Stability Assay. The class given is in vitro ADME. As to conditions: 37° C.; for half-life at 22 μM: simulated intestinal fluid (SIF) with 1% porcine pancreatin, pH 6.5, porcine pancreatin; for half-life: porcine pancreatin. An outline of the steps:
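Percent peptide remaining over time was measured by LC-MS/MS as the peak-area ratio to internal standard, and a first-order decay fit gave half-life. Digests contained 22 μM peptide and 1% pancreatin in pH 6.5 FaSSIF buffer at 37° C. Aliquots were quenched in organic solvent with formic acid.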

The mark [2] stands for this setting: thioether monomer peptides, Table 6.
Where [3] appears, read: thioether peptide dimers, Table 7.

pIC50: −log10 of the molar value. Where two headings read alike, the source gives them in different places. *1 amine or outer side, *2 acyl side, *3 side chain or, on linkers, in order; H or OH if unused. Where a SMILES comes first, the peptide text is derived from it. Bridges are numbered along the chain shown (N, C = ends). Roman numbers before positions name the chains, in order. [ ]: non-standard residue; d: D form. Phe(4-CF3) = N[C@@H](Cc1ccc(C(F)(F)F)cc1)C(=O)O; 1Nal = N[C@@H](Cc1cccc2ccccc12)C(=O)O; Diglycolyl = O=C(COCC(=O)[*:2])[*:1]; NMeR = CN[C@@H](CCCNC(=N)N)C(=O)O; X1 = O=C(c1ccccc1C[*:2])[*:1]; Pen = CC(C)(S)[C@H](N)C(=O)O A value given as a limit tells only on which side of the number the result lay.

For the compound `CC(C)C[C@@H]1NC(=O)[C@H]([C@@H](C)O)NC(=O)[C@H](CC(=O)O)NC(=O)[C@H](CO)NC(=O)[C@H](CCCNC(=N)N)N(C)C(=O)c2ccccc2CSC[C@@H](C(=O)N[C@@H](Cc2c[nH]c3ccccc23)C(=O)N[C@@H](CCC(=O)O)C(=O)N[C@H](CCCCN)C(N)=O)NC1=O` [compound 55] (HELM PEPTIDE1{[meR].S.D.T.L.C.W.E.[dK].[am]}|CHEM1{[O=C(c1ccccc1C[*:2])[*:1]]}$PEPTIDE1,CHEM1,1:R1-1:R1|PEPTIDE1,CHEM1,6:R3-1:R2$$$V2.0), the pIC50 at rh integrin α4β7 (setting [2]) is > 7.60. Besides, in series [1] (pig, monomers, Table 6), the half-life at 22 μM was 25 min.

For the compound `CC(C)C[C@@H]1NC(=O)[C@H]([C@@H](C)O)NC(=O)[C@H](CC(=O)O)NC(=O)[C@H](CO)NC(=O)[C@H](CCCNC(=N)N)N(C)C(=O)c2ccccc2CSC(C)(C)[C@@H](C(=O)N[C@@H](Cc2cccc3ccccc23)C(=O)N[C@H](CCC(=O)O)C(=O)N(C)[C@@H](CCCCN)C(N)=O)NC1=O` [compound 69] (HELM PEPTIDE1{[meR].S.D.T.L.[Pen].[O=C([C@H](Cc1cccc2ccccc12)N[*:1])[*:2]].[dE].[meK].[am]}|CHEM1{[O=C(c1ccccc1C[*:2])[*:1]]}$PEPTIDE1,CHEM1,1:R1-1:R1|PEPTIDE1,CHEM1,6:R3-1:R2$$$V2.0), the pIC50 on rh integrin α4β7 (setting [2]) is > 7.60. In addition, in series [1] (pig, monomers, Table 6), the half-life at 22 μM was > 180 min.

Take `CC(C)C[C@@H]1NC(=O)[C@H]([C@@H](C)O)NC(=O)[C@H](CC(=O)O)NC(=O)[C@H](CO)NC(=O)[C@H](CCCNC(=N)N)N(C)C(=O)c2ccccc2CSC(C)(C)[C@@H](C(=O)N[C@@H](Cc2c[nH]c3ccccc23)C(=O)N[C@H](CCC(=O)O)C(=O)N[C@@H](CN)C(N)=O)NC1=O` [compound 94] (HELM PEPTIDE1{[meR].S.D.T.L.[Pen].W.[dE].[NC[C@H](N[*:1])C(=O)[*:2]].[am]}|CHEM1{[O=C(c1ccccc1C[*:2])[*:1]]}$PEPTIDE1,CHEM1,1:R1-1:R1|PEPTIDE1,CHEM1,6:R3-1:R2$$$V2.0): the pIC50 on rh integrin α4β7 (setting [2]) is > 7.60. The half-life in series [1] (pig, monomers, Table 6) was > 180 min.

Turning to `CC(C)C[C@@H]1NC(=O)[C@H]([C@@H](C)O)NC(=O)[C@H](CC(=O)O)NC(=O)[C@H](CO)NC(=O)[C@H](CCCNC(=N)N)N(C)C(=O)c2ccccc2CSC(C)(C)[C@@H](C(=O)N[C@@H](Cc2c[nH]c3ccccc23)C(=O)N[C@H](CCC(=O)O)C(=O)N[C@@H](CCN)C(N)=O)NC1=O` [compound 95] (HELM PEPTIDE1{[meR].S.D.T.L.[Pen].W.[dE].[Dab].[am]}|CHEM1{[O=C(c1ccccc1C[*:2])[*:1]]}$PEPTIDE1,CHEM1,1:R1-1:R1|PEPTIDE1,CHEM1,6:R3-1:R2$$$V2.0), the pIC50 at rh integrin α4β7 (setting [2]) is > 7.60. Moreover, in series [1] (pig, monomers, Table 6), the half-life is > 180 min.

Regarding `CC(C)C[C@@H]1NC(=O)[C@H]([C@@H](C)O)NC(=O)[C@H](CC(=O)O)NC(=O)[C@H](CO)NC(=O)[C@H](CCCNC(=N)N)N(C)C(=O)c2ccccc2CSC(C)(C)[C@@H](C(=O)N[C@@H](Cc2c[nH]c3ccccc23)C(=O)N[C@@H](CCC(=O)O)C(N)=O)NC1=O` [compound 96] (HELM PEPTIDE1{[meR].S.D.T.L.[Pen].W.E.[am]}|CHEM1{[O=C(c1ccccc1C[*:2])[*:1]]}$PEPTIDE1,CHEM1,1:R1-1:R1|PEPTIDE1,CHEM1,6:R3-1:R2$$$V2.0), the pIC50 at rh integrin α4β7 (setting [2]) is > 7.60. In series [1] (pig, monomers, Table 6), this compound yielded a half-life at 22 μM of 26 min.

For the compound `CC(C)C[C@@H]1NC(=O)[C@H]([C@@H](C)O)NC(=O)[C@H](CC(=O)O)NC(=O)[C@H](CO)NC(=O)[C@H](CCCNC(=N)N)N(C)C(=O)c2ccccc2CSC(C)(C)[C@@H](C(=O)N[C@@H](Cc2ccc3ccccc3c2)C(=O)N[C@H](CCC(=O)O)C(N)=O)NC1=O` [compound 114] (HELM PEPTIDE1{[meR].S.D.T.L.[Pen].[O=C([C@H](Cc1ccc2ccccc2c1)N[*:1])[*:2]].[dE].[am]}|CHEM1{[O=C(c1ccccc1C[*:2])[*:1]]}$PEPTIDE1,CHEM1,1:R1-1:R1|PEPTIDE1,CHEM1,6:R3-1:R2$$$V2.0), the pIC50 on rh integrin α4β7 (setting [2]) was > 7.60. Further, the half-life at 22 μM in series [1] (pig, monomers, Table 6) is > 180 min.

As to `CC(C)C[C@@H]1NC(=O)[C@H]([C@@H](C)O)NC(=O)[C@H](CC(=O)O)NC(=O)[C@H](CO)NC(=O)[C@H](CCCNC(=N)N)N(C)C(=O)c2ccccc2CSC(C)(C)[C@@H](C(=O)N[C@@H](Cc2cccc3ccccc23)C(=O)N[C@H](CCC(=O)O)C(=O)N[C@H](CCCCNC(=O)COCC(=O)NCCCC[C@@H](NC(=O)[C@@H](CCC(=O)O)NC(=O)[C@H](Cc2cccc3ccccc23)NC(=O)[C@H]2NC(=O)[C@H](CC(C)C)NC(=O)[C@H]([C@@H](C)O)NC(=O)[C@H](CC(=O)O)NC(=O)[C@H](CO)NC(=O)[C@H](CCCNC(=N)N)N(C)C(=O)c3ccccc3CSC2(C)C)C(N)=O)C(N)=O)NC1=O` [compound 158] (I: [NMeR]SDTL[Pen][1Nal][dE][dK]-NH2 / II: [NMeR]SDTL[Pen][1Nal][dE][dK]-NH2; linker I:9-II:9 via Diglycolyl; linker I:N-I:6, II:N-II:6 via X1), on rh integrin α4β7 (setting [3]), the pIC50 is > 7.60. In series [1] (pig, dimers, Table 7), the half-life at 22 μM was > 180 min.

Take `CC(C)C[C@@H]1NC(=O)[C@H]([C@@H](C)O)NC(=O)[C@H](CC(=O)O)NC(=O)[C@H](CO)NC(=O)[C@H](CCCNC(=N)N)N(C)C(=O)c2ccccc2CSC(C)(C)[C@@H](C(=O)N[C@@H](Cc2ccc(C(F)(F)F)cc2)C(=O)N[C@@H](CCC(=O)O)C(=O)N[C@H](CCCCNC(=O)COCC(=O)NCCCC[C@@H](NC(=O)[C@H](CCC(=O)O)NC(=O)[C@H](Cc2ccc(C(F)(F)F)cc2)NC(=O)[C@H]2NC(=O)[C@H](CC(C)C)NC(=O)[C@H]([C@@H](C)O)NC(=O)[C@H](CC(=O)O)NC(=O)[C@H](CO)NC(=O)[C@H](CCCNC(=N)N)N(C)C(=O)c3ccccc3CSC2(C)C)C(N)=O)C(N)=O)NC1=O` [compound 166] (I: [NMeR]SDTL[Pen][Phe(4-CF3)]E[dK]-NH2 / II: [NMeR]SDTL[Pen][Phe(4-CF3)]E[dK]-NH2; linker I:9-II:9 via Diglycolyl; linker I:N-I:6, II:N-II:6 via X1): on rh integrin α4β7 (setting [3]), the pIC50 is > 7.60. In series [1] (pig, dimers, Table 7), this compound came in with a half-life of 30 min.

Turning to `CC(C)C[C@@H]1NC(=O)[C@H]([C@@H](C)O)NC(=O)[C@H](CC(=O)O)NC(=O)[C@H](CO)NC(=O)[C@H](CCCNC(=N)N)N(C)C(=O)c2ccccc2CSC(C)(C)[C@@H](C(=O)N[C@@H](Cc2cccc3ccccc23)C(=O)N[C@@H](CCC(=O)O)C(=O)N[C@H](CCCCNC(=O)COCC(=O)NCCCC[C@@H](NC(=O)[C@H](CCC(=O)O)NC(=O)[C@H](Cc2cccc3ccccc23)NC(=O)[C@H]2NC(=O)[C@H](CC(C)C)NC(=O)[C@H]([C@@H](C)O)NC(=O)[C@H](CC(=O)O)NC(=O)[C@H](CO)NC(=O)[C@H](CCCNC(=N)N)N(C)C(=O)c3ccccc3CSC2(C)C)C(N)=O)C(N)=O)NC1=O` [compound 167] (I: [NMeR]SDTL[Pen][1Nal]E[dK]-NH2 / II: [NMeR]SDTL[Pen][1Nal]E[dK]-NH2; linker I:9-II:9 via Diglycolyl; linker I:N-I:6, II:N-II:6 via X1), the pIC50 on rh integrin α4β7 (setting [3]) was > 7.60. Also, the half-life in series [1] (simulated gi fluid, dimers, Table 7) was < 20 min.
